Laboratory results reported in US20150253330A1, “PRE-SELECTION OF SUBJECTS FOR THERAPEUTIC TREATMENT WITH AN HSP90 INHIBITOR BASED ON HYPOXIC STATUS” (Synta Pharmaceuticals Corp., priority 2012, published 2015).
Like-named read-outs stand apart in the source and are kept apart here.

Legend:
HIF-1α and VEGF = test: Western blot of HIF-1α and VEGF in pancreatic cancer cell lines; type: cell-based; conditions: 50 nM, 24 h
Description: It's postulated that functional inhibition of Hsp90 by ganetespib can inhibit angiogenesis and growth in vitro and in vivo models of pancreatic cancer. PANC-1 and HPAC cell lines were treated with vehicle or G (50 nM) for 24 h and lysates were analyzed by Western blot. Egg CAM and matrigel plug assays were performed to quantify the effects of ganetespib on angiogenesis. Efficacy of ganetespib (100 mg/kg) was assessed in mice bearing HPAC and ASPC-1 xenograft.
Primary antibodies specific to Hsp90, HIF-1α, VEGF, Actin and HRP conjugated secondary antibodies (Santa Cruz Biotechnology, California and Cell Signaling Technology, USA) were used for Western blot. Ganetespib was provided by Synta Pharmaceuticals, Lexington, Mass. and Matrigel was purchased from BD Biosciences.
Cells were harvested at the end of treatment and lysed in the RIPA protein extraction buffer (Sigma-Aldrich, Saint Louis, Mo., USA) containing the protease inhibitor cocktail. Equal amounts of protein fractions of lysates were resolved over SDS-PAGE and transferred on to PVDF membrane. Membranes were incubated with primary antibodies followed by HRP-conjugated secondary antibodies. Bound antibodies were visualized using enhanced chemiluminescence. To confirm equal loading, membranes were verified and re-probed with an antibody specific for the housekeeping gene, anti-β-actin.

[1] = tested on: AGS (wt-p53 and mut-KRAS); test: 72 hr viability by CTG, gastric cancer cells; type: cell-based; conditions: viability by CTG (upper)
Description: (§1) Many of the oncoproteins associated with gastric cancer and Hsp90 client proteins including HER2, MET, RAS and the FGFR family. Ganetespib was evaluated for its effect on the growth of AGS (wt-p53 and mut-KRAS) and MKN45 (wt-p53, wt-KRAS, MET amplified) gastric cancer cells.

[2] = tested on: MKN45 (wt-p53, wt-KRAS, MET amplified); test: 72 hr viability by CTG, gastric cancer cells; type: cell-based; conditions: Homo sapiens, MKN-45, viability by CTG (upper)
Description: as §1

A549 NSCLC cells = test: Mouse xenograft tumor model, ganetespib and BEZ235 (Example 9); type: in vivo, mice; conditions: ganetespib 50 mg/kg weekly i.v.; BEZ235 10 mg/kg 5 times a week p.o.; particularly at later time points; FIG. 8
Description: Female immunodeficient CD-1 (nude) mice (Charles River Laboratories, Wilmington, Mass.) were maintained in a pathogen-free environment, and all in vivo procedures were approved by the Synta Pharmaceuticals Corp. Institutional Animal Care and Use Committee. A549 NSCLC cells (7.5×10^6) were subcutaneously implanted into the animals. Mice bearing established tumors (100-200 mm^3) were randomized into treatment groups of 8 and i.v. dosed via the tail vein with either vehicle, ganetespib formulated in 10/18 DRD (10% DMSO, 18% Cremophor RH 40, 3.6% dextrose, 68.4% water) or p.o. dosed with BEZ235 formulated in PEG300/NMP (90% PEG300, 10% N-Methylpyrrolidone). Animals were treated with ganetespib at 50 mg/kg weekly or BEZ235 at 10 mg/kg 5 times a week, either alone or in combination. Tumor growth inhibition was determined as described previously. See Proia et al, PLoS One. 2011; 6(4):e18552.

RCC = conditions: cited from earlier work
colon cancer first line = conditions: cited from earlier work
colon cancer second line = conditions: cited from earlier work
[3] = tested on: Chk1 and Chk2 phosphorylation; test: Western blot of Chk1 and Chk2 phosphorylation after bleomycin in Detroit 562 cells; type: cell-based; conditions: Detroit 562, bleomycin (5 μM)
Description: Protein expression was measured at the indicated time points after bleomycin treatment.
Cell extracts from Detroit 562 head and neck cancer cells were treated with 100 nM of ganetespib 24 hours prior to receiving the DNA damaging agent bleomycin (5 μM). Protein expression was measured at the indicated time points after bleomycin treatment.

pancreatic cancer = conditions: cited from earlier work
prostate cancer = conditions: cited from earlier work
melanoma = conditions: cited from earlier work

3-2,4-dihydroxy-5-isopropyl-phenyl)-4-(1-methyl-indol-5-yl)-5-hydroxy-[1,2,4]triazole [ganetespib]
HIF-1α and VEGF protein levels (HIF-1α and VEGF): significant reduction

C=CCNC1=C2C[C@@H](C)C[C@H](OC)[C@H](O)[C@@H](C)/C=C(\C)[C@H](OC(N)=O)[C@@H](OC)/C=C\C=C(/C)C(=O)NC(=CC1=O)C2=O [17-AAG, 17-allyamino-geldanamycin]
IC50 [1]: 50 nM | IC50 [2]: 1 nM

Cn1c(=O)n(-c2ccc(C(C)(C)C#N)cc2)c2c3cc(-c4cnc5ccccc5c4)ccc3ncc21 [BEZ235, reference compound]
Average tumor volume as compared to vehicle (A549 NSCLC cells): significantly reduced

CC(=O)O[C@@]12CO[C@@H]1C[C@H](O)[C@@]1(C)C(=O)[C@H](O)C3=C(C)[C@@H](OC(=O)[C@H](O)[C@@H](NC(=O)OC(C)(C)C)c4ccccc4)C[C@@](O)([C@@H](OC(=O)c4ccccc4)[C@H]21)C3(C)C [Docetaxel]
IC50 [1]: 0.3 nM | IC50 [2]: 0.1 nM

CO[C@H]1C[C@@H]2CC[C@@H](C)[C@@](O)(O2)C(=O)C(=O)N2CCCC[C@H]2C(=O)O[C@H]([C@H](C)C[C@@H]2CC[C@@H](OC(=O)C(C)(CO)CO)[C@H](OC)C2)CC(=O)[C@H](C)/C=C(\C)[C@@H](O)[C@@H](OC)C(=O)[C@H](C)C[C@H](C)/C=C/C=C/C=C/1C [temsirolimus]
OS HR (RCC; high LDH, P=0.002): 0.56 | OS HR (RCC; normal LDH, P=0.51): 0.90

Clc1ccc(Nc2nnc(Cc3ccncc3)c3ccccc23)cc1 [vatalanib]
PFS HR (colon cancer first line; LDH group not given, P=0.188): 0.88 | PFS HR (colon cancer first line; high LDH, P=0.009): 0.67 | PFS HR (colon cancer second line; LDH group not given, P=0.01): 0.83 | PFS HR (colon cancer second line; high LDH, P<0.001): 0.63

Bleomycin [reference compound]
Chk1 and Chk2 phosphorylation [3]: increased both Chk1 and Chk2 phosphorylation

bevacizumab: anti-cancer agent cited from large randomized phase 2 and phase 3 studies
OS HR (pancreatic cancer; high LDH, 95% CI 0.43-0.82): 0.59 | HR (pancreatic cancer; normal LDH, 95% CI 0.78-1.24): 0.98 | OS HR (prostate cancer; high LDH, P=0.029): 0.80 | OS HR (prostate cancer; normal LDH, P=0.87): 1.02 | OS HR (melanoma; high LDH, 95% CI 0.32-0.88): 0.53 | OS HR (melanoma; normal LDH, 95% CI 0.73-1.25): 1.25
